From ChEMBL document CHEMBL1201862, “PubChem BioAssay data set” (2004)
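Dose response: 5 concentrations. Exposure: 48 h. Format: 96-well plates. Endpoint: linear interpolation; highest concentration if not reached. GI50 is the concentration that inhibits growth by half.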 The source made the active and inactive calls. Cut-off read from the data, not from the text of the source: active = GI50 up to about 1.1 µM and inactive = higher.

Columns and labels:
Assay in all cases: NCI tumour cell line growth inhibition, 48 h
UO-31 = system: UO-31
MOLT-4 = system: MOLT-4
NCI/ADR-RES = system: NCI/ADR-RES
NCI-H23 = system: NCI-H23
EKVX = system: EKVX
NCI-H460 = system: NCI-H460
SK-OV-3 = system: SK-OV-3
LOX IMVI = system: LOX IMVI
HOP-62 = system: HOP-62
SK-MEL-28 = system: SK-MEL-28
SK-MEL-5 = system: SK-MEL-5
SW-620 = system: SW-620
DU-145 = system: DU-145
SF-295 = system: SF-295
HCC 2998 = system: HCC 2998
UACC-257 = system: UACC-257
HCT-15 = system: HCT-15
Malme-3M = system: Malme-3M
TK-10 = system: TK-10
HL-60 = system: HL-60

| SMILES | GI50 (UO-31) | GI50 (MOLT-4) | GI50 (NCI/ADR-RES) | GI50 (NCI-H23) | GI50 (EKVX) | GI50 (NCI-H460) | GI50 (SK-OV-3) | GI50 (LOX IMVI) | GI50 (HOP-62) | GI50 (SK-MEL-28) | GI50 (SK-MEL-5) | GI50 (SW-620) | GI50 (DU-145) | GI50 (SF-295) | GI50 (HCC 2998) | GI50 (UACC-257) | GI50 (HCT-15) [µM] | GI50 (Malme-3M) | GI50 (TK-10) | GI50 (HL-60) |
| --- | --- | --- | --- | --- | --- | --- | --- | --- | --- | --- | --- | --- | --- | --- | --- | --- | --- | --- | --- | --- |
| Oc1cccnc1CN1CCCCC1 | > 100 µM (inactive) | > 100 µM (inactive) | > 100 µM (inactive) | > 100 µM (inactive) | > 100 µM (inactive) | > 100 µM (inactive) | > 100 µM (inactive) | > 100 µM (inactive) | > 100 µM (inactive) | > 100 µM (inactive) | > 100 µM (inactive) | > 100 µM (inactive) | > 100 µM (inactive) | > 100 µM (inactive) | > 100 µM (inactive) | > 100 µM (inactive) | > 100 | > 100 µM (inactive) | > 100 µM (inactive) |  |
| COc1ccc2c(=O)c3ccoc3[nH]c2c1 | > 100 µM (inactive) | > 100 µM (inactive) | > 100 µM (inactive) | > 100 µM (inactive) | > 100 µM (inactive) | > 100 µM (inactive) | > 100 µM (inactive) | > 100 µM (inactive) | > 100 µM (inactive) | > 100 µM (inactive) | > 100 µM (inactive) | > 100 µM (inactive) | > 100 µM (inactive) | > 100 µM (inactive) | > 100 µM (inactive) | > 100 µM (inactive) | > 100 |  | > 100 µM (inactive) | > 100 µM (inactive) |
| NC(=O)c1ccc(/N=N/O)nc1 | > 100 µM (inactive) | > 100 µM (inactive) | > 100 µM (inactive) | > 100 µM (inactive) | > 100 µM (inactive) | > 100 µM (inactive) | > 100 µM (inactive) |  | > 100 µM (inactive) | > 100 µM (inactive) | > 100 µM (inactive) | > 100 µM (inactive) | > 100 µM (inactive) | > 100 µM (inactive) | > 100 µM (inactive) | > 100 µM (inactive) | > 100 | 0.0755 µM (active) | > 100 µM (inactive) | > 100 µM (inactive) |
| COc1ccc(OC)c(/C=C/c2cnnc3ccccc23)c1 | 5.08 µM (inactive) | 2.65 µM (inactive) | 2.39 µM (inactive) | 4.8 µM (inactive) | 4.15 µM (inactive) | 4.11 µM (inactive) | 5.5 µM (inactive) | 3.48 µM (inactive) | 4.12 µM (inactive) | 8.47 µM (inactive) | 3.61 µM (inactive) | 3.06 µM (inactive) | > 10 µM (inactive) | 5.4 µM (inactive) | 5.27 µM (inactive) | 3.39 µM (inactive) | 1.96 |  | > 10 µM (inactive) | 2.79 µM (inactive) |
| Cc1c(C)c2c(c(N)c1C#N)C(=O)N(O)C2=O | > 100 µM (inactive) | > 100 µM (inactive) | > 100 µM (inactive) | > 100 µM (inactive) | > 100 µM (inactive) | > 100 µM (inactive) | > 100 µM (inactive) |  |  | > 100 µM (inactive) | > 100 µM (inactive) | > 100 µM (inactive) | > 100 µM (inactive) | > 100 µM (inactive) | > 100 µM (inactive) | > 100 µM (inactive) | > 100 | > 100 µM (inactive) | > 100 µM (inactive) | > 100 µM (inactive) |
| CCC(c1ccc2cc(O)ccc2c1)C(C)(C)C(=O)O (stereo unspecified) | > 100 µM (inactive) | > 100 µM (inactive) | > 100 µM (inactive) | > 100 µM (inactive) | > 100 µM (inactive) | > 100 µM (inactive) | > 100 µM (inactive) | > 100 µM (inactive) | > 100 µM (inactive) | > 100 µM (inactive) | > 100 µM (inactive) | > 100 µM (inactive) | > 100 µM (inactive) | > 100 µM (inactive) | > 100 µM (inactive) | > 100 µM (inactive) | > 100 | > 100 µM (inactive) | > 100 µM (inactive) |  |
| COc1ccc(-c2oc3c(CC(=O)O)cccc3c(=O)c2OC)cc1 | 0.0809 µM (active) | > 100 µM (inactive) | > 100 µM (inactive) | > 100 µM (inactive) | > 100 µM (inactive) |  | > 100 µM (inactive) |  | > 100 µM (inactive) |  | > 100 µM (inactive) |  | > 100 µM (inactive) | > 100 µM (inactive) | > 100 µM (inactive) | > 100 µM (inactive) |  | > 100 µM (inactive) | > 100 µM (inactive) | > 100 µM (inactive) |
| COC(=O)c1c(O)c2c(c3c1OC(C)(C)CC3)OC(C)(C)CC2 | 18.8 µM (inactive) | 22.7 µM (inactive) | 22.1 µM (inactive) | 20.1 µM (inactive) | 21.2 µM (inactive) | 22.3 µM (inactive) | 27.3 µM (inactive) |  | 21 µM (inactive) | 26.6 µM (inactive) | 15 µM (inactive) | 17.5 µM (inactive) | 24.5 µM (inactive) | 17 µM (inactive) | 16.4 µM (inactive) | 20.4 µM (inactive) | 21.2 | 0.824 µM (active) | > 10 µM (inactive) | 15.1 µM (inactive) |
| CC(=N/NC(=S)N(C)C)/C(=N\NC(=S)N(C)C)c1ccccc1 | 2.11 µM (inactive) | 7.16 µM (inactive) | 2.47 µM (inactive) | 2.32 µM (inactive) | 1.85 µM (inactive) | 1 µM (active) | 1.98 µM (inactive) | 3.08 µM (inactive) | 2.24 µM (inactive) | 1.9 µM (inactive) | 1.64 µM (inactive) | 1.93 µM (inactive) | 5.46 µM (inactive) | 2.08 µM (inactive) | 0.989 µM (active) | 1.98 µM (inactive) | 1.21 | 1.75 µM (inactive) | 1.59 µM (inactive) |  |
| OCCSCc1cc(Cl)cc(Cl)c1O | > 100 µM (inactive) | > 100 µM (inactive) | > 100 µM (inactive) | > 100 µM (inactive) | > 100 µM (inactive) | > 100 µM (inactive) | > 100 µM (inactive) | > 100 µM (inactive) | > 100 µM (inactive) | > 100 µM (inactive) | > 100 µM (inactive) | > 100 µM (inactive) | > 100 µM (inactive) | > 100 µM (inactive) | > 100 µM (inactive) | > 100 µM (inactive) | > 100 | > 100 µM (inactive) | > 100 µM (inactive) |  |
| O=C1c2ccccc2-c2c1c(-c1ccc(F)cc1)nc1ccc3ccccc3c21 | > 100 µM (inactive) | > 100 µM (inactive) | > 100 µM (inactive) | > 100 µM (inactive) | > 100 µM (inactive) | > 100 µM (inactive) | > 100 µM (inactive) | > 100 µM (inactive) | > 100 µM (inactive) | > 100 µM (inactive) |  | > 100 µM (inactive) | > 100 µM (inactive) | > 100 µM (inactive) | > 100 µM (inactive) | > 100 µM (inactive) | > 100 | > 100 µM (inactive) |  |  |
| N#C/C(=C\NC(=S)c1ccncc1)c1nc2ccccc2s1 | > 100 µM (inactive) | 31.2 µM (inactive) | > 100 µM (inactive) | 51.2 µM (inactive) | 67.1 µM (inactive) | 68.7 µM (inactive) | > 100 µM (inactive) | > 100 µM (inactive) | > 100 µM (inactive) | > 100 µM (inactive) | > 100 µM (inactive) | > 100 µM (inactive) | > 100 µM (inactive) | > 100 µM (inactive) | 21.7 µM (inactive) | 30.9 µM (inactive) | > 100 |  | 65.2 µM (inactive) | > 100 µM (inactive) |
| COc1ccccc1NC(=O)CC(=O)N1N=C(C)C(/N=N/c2ccc(C(=O)O)cc2)C1=O (stereo unspecified) | > 100 µM (inactive) |  | > 100 µM (inactive) | > 100 µM (inactive) | 28.6 µM (inactive) |  |  | > 100 µM (inactive) | > 100 µM (inactive) | > 100 µM (inactive) | > 100 µM (inactive) | > 100 µM (inactive) | > 100 µM (inactive) | > 100 µM (inactive) | > 100 µM (inactive) | > 100 µM (inactive) | > 100 | > 100 µM (inactive) | > 100 µM (inactive) | > 100 µM (inactive) |
| COc1cc2c(c3c1c(=O)c1ccccc1n3C)C=C([N+](=O)[O-])C(C)(C)O2 | 0.421 µM (active) | 0.0861 µM (active) | 2.09 µM (inactive) | 0.395 µM (active) |  | < 0.0201 µM (active) | 0.356 µM (active) | 0.138 µM (active) | 30.9 µM (inactive) |  | 0.0141 µM (active) |  | < 0.0456 µM (active) | 0.647 µM (active) | 0.325 µM (active) | < 0.0454 µM (active) | 0.355 |  | > 65.2 µM (inactive) | 0.167 µM (active) |
| CNC(=S)N/N=C(\C(=N/NC(=S)NC)c1ccccn1)c1ccccn1 | 2.48 µM (inactive) |  | < 0.02 µM (active) | 9.12 µM (inactive) | 1.63 µM (inactive) | 0.348 µM (active) | 0.726 µM (active) | 4.82 µM (inactive) | 7.78 µM (inactive) | 29 µM (inactive) | 1.53 µM (inactive) | 1.24 µM (inactive) | 8.05 µM (inactive) | 3.15 µM (inactive) | > 23 µM (inactive) | 1.82 µM (inactive) | 0.232 | 4.73 µM (inactive) | 4.04 µM (inactive) |  |
| COc1cc2c(cc1OC)C(C)N(C)c1c-2c(OC(C)=O)cc2cc(OC)c(OC)cc12 (stereo unspecified) | 12.1 µM (inactive) | 5.69 µM (inactive) | 7.48 µM (inactive) | 15.4 µM (inactive) | 13.2 µM (inactive) | 6.38 µM (inactive) | 27.7 µM (inactive) | 13.2 µM (inactive) | 21.3 µM (inactive) | 19.9 µM (inactive) | 4.67 µM (inactive) | 23.7 µM (inactive) | 16.9 µM (inactive) | 11.8 µM (inactive) | 15.6 µM (inactive) | 11.1 µM (inactive) | 15 | 3.72 µM (inactive) | 23.2 µM (inactive) |  |
